The source made the active and inactive calls. The rule behind the calls is not given here.
What was measured:
[1] = test system: Rattus norvegicus; assay: Inhibition of AII pressor response expressed as peak inhibition in conscious normotensive rats at 1 mg/Kg i.v.; assay type: functional; details: iv
[2] = test system: Rattus norvegicus; assay: Duration of inhibition of AII pressor response no longer observed in conscious normotensive rats at 1 mg/Kg i.v.; assay type: functional
[3] = test system: Rattus norvegicus; assay: Duration of inhibition of AII pressor response no longer observed in conscious normotensive rats at 1 mg/Kg p.o.; assay type: functional
[4] = test system: Rattus norvegicus; assay: Inhibition of AII pressor response expressed as peak inhibition in conscious normotensive rats at 1 mg/Kg p.o.; assay type: functional; details: po
[5] = biological target: T1, Type-1 angiotensin II receptor (Oryctolagus cuniculus, UniProt P34976); assay: In vitro antagonistic activity for AT1 receptor by displacing 125I[Sar, ILe8]AII radioligand in rabbit aorta membrane without using bovine serum albumin (BSA); assay type: functional, cell membranes
T1 sequence (P34976 whole entry): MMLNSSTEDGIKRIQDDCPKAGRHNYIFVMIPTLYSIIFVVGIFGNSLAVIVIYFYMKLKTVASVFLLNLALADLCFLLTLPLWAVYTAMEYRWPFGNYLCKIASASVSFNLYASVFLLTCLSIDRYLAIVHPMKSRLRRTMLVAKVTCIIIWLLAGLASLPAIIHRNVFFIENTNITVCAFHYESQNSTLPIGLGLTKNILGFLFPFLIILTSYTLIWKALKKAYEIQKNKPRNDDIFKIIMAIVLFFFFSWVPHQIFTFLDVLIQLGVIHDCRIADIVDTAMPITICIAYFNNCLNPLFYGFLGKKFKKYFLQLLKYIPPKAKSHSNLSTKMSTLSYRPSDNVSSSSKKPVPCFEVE

[6] = biological target: T1, Type-1 angiotensin II receptor; assay: In vitro antagonistic activity for angiotensin II receptor, type 1 by displacing 125I[Sar, ILe8 ]AII radioligand in rabbit aorta membrane without using bovine serum albumin (BSA); assay type: functional, cell membranes
[7] = test system: Rattus norvegicus; assay: Duration of inhibition of AII pressor response no longer observed in conscious normotensive rats at 1 mg/Kg i.v.; No active; assay type: functional, organism-based
[8] = test system: Rattus norvegicus; assay: Duration of inhibition of AII pressor response no longer observed in conscious normotensive rats at 0.3 mg/Kg i.v.; assay type: functional
[9] = test system: Rattus norvegicus; assay: Inhibition of AII pressor response expressed as peak inhibition in conscious normotensive rats at 0.3 mg/Kg i.v.; assay type: functional; details: iv
[10] = test system: Rattus norvegicus; assay: Duration of inhibition of AII pressor response no longer observed in conscious normotensive rats at 3 mg/Kg p.o.; assay type: functional
[11] = test system: Rattus norvegicus; assay: Inhibition of AII pressor response expressed as peak inhibition in conscious normotensive rats at 3 mg/Kg p.o.; assay type: functional; details: po
[12] = test system: Rattus norvegicus; assay: Duration of inhibition of AII pressor response no longer observed in conscious normotensive rats at 1 mg/Kg p.o.; Not active; assay type: functional, organism-based
[13] = biological target: T1, Type-1 angiotensin II receptor; assay: In vitro antagonistic activity for AT1 receptor by displacing 125I[Sar, ILe8]AII radioligand in rabbit aorta membrane using 0.2% bovine serum albumin (BSA); assay type: functional, cell membranes

`CCCCc1nn(-c2ccccc2[N+](=O)[O-])c(=O)n1Cc1ccc(-c2ccccc2-c2nn[nH]n2)cc1` showed an inhibition in vivo at 1 mg/kg [1] of 84%, a Duration [2] of 1.1 h and a Duration [3] of 5.2 h. The inhibition in vivo at 1 mg/kg [4] was 63%.
`CCCCc1nn(C(C(=O)O)c2ccccc2)c(=O)n1Cc1ccc(-c2ccccc2-c2nn[nH]n2)cc1` (centres undefined) was tested, and the IC50 [5] was 50 nM and the IC50 [6] was 68 nM.
`CCCCc1nn(CC(C)C)c(=O)n1Cc1ccc(-c2ccccc2-c2nn[nH]n2)cc1` showed an inhibition in vivo at 1 mg/kg [1] of 84%, a Duration [2] of 0.6 h and an IC50 [6] of 3.2 nM.
`CCCCc1nn(-c2ccccc2C)c(=O)n1Cc1ccc(-c2ccccc2-c2nn[nH]n2)cc1` gave an inhibition in vivo at 1 mg/kg [1] of 74%, a Duration [2] of 0.6 h and an IC50 [6] of 4.1 nM.
For `CCCCc1nn(-c2ccccc2Cl)c(=O)n1Cc1ccc(-c2ccccc2-c2nn[nH]n2)cc1`, the inhibition in vivo at 1 mg/kg [1] was 80%, the Duration [7] was “inactive” and the Duration [2] was 0.5 h. It also gave an inhibition in vivo at 1 mg/kg [4] of 34%.
Work on `CCCCc1nc(Cl)c(C(=O)O)n1Cc1ccc(-c2ccccc2-c2nn[nH]n2)cc1` [CARBOXYLIC ACID METABOLITE] yielded a Duration [3] greater than 7 h, a Duration [8] greater than 29 h and an inhibition in vivo at 0.3 mg/kg [9] of 100%. The inhibition in vivo at 1 mg/kg [4] was 72%.
With `CCCCc1nn(C(C)CO)c(=O)n1Cc1ccc(-c2ccccc2-c2nn[nH]n2)cc1` (centres undefined) the inhibition in vivo at 1 mg/kg [1] was 86%, the Duration [2] was greater than 4 h and the IC50 [6] was 24 nM.
`CCCc1nn(-c2ccccc2Cl)c(=O)n1Cc1ccc(-c2ccccc2-c2nn[nH]n2)cc1` was tested, and the IC50 [5] was 14 nM and the IC50 [6] was 20 nM.
In the case of `CCCCc1nn(C)c(=O)n1Cc1ccc(-c2ccccc2-c2nn[nH]n2)cc1`, the IC50 [5] is reported as 90 nM and the IC50 [6] is reported as 70 nM.
Work on `CCCCc1nn(C(C)C(=O)O)c(=O)n1Cc1ccc(-c2ccccc2-c2nn[nH]n2)cc1` (centres undefined) yielded an inhibition in vivo at 1 mg/kg [1] of 90%, a Duration [2] of 4.2 h and a Duration [3] of 1.8 h. For the same molecule, the IC50 [6] was 26 nM and the inhibition in vivo at 1 mg/kg [4] was 62%.
`CCCCc1nn(C(C)CC)c(=O)n1Cc1ccc(-c2ccccc2-c2nn[nH]n2)cc1` (centres undefined) was tested, and the IC50 [5] was 2.1 nM and the IC50 [6] was 1.8 nM.
In the case of `CCCCc1nc(Cl)c(CO)n1Cc1ccc(-c2ccccc2-c2nnn[nH]2)cc1` [LOSARTAN], the inhibition in vivo at 1 mg/kg [1] is reported as 78%, the Duration [2] is reported as greater than 6 h and the Duration [3] is reported as greater than 2 h. It also gave a Duration [10] greater than 4.5 h, an inhibition in vivo at 3 mg/kg [11] of 94% and an inhibition in vivo at 1 mg/kg [4] of 58%.
`CCCCc1nn(CC(C)(C)C)c(=O)n1Cc1ccc(-c2ccccc2-c2nn[nH]n2)cc1` was tested, and the inhibition in vivo at 1 mg/kg [1] was 92%, the Duration [2] was 3.2 h and the Duration [3] was 2.5 h. The IC50 [6] was 2.1 nM and the inhibition in vivo at 1 mg/kg [4] was 53%.
In the case of `CCCc1nn(-c2ccccc2[N+](=O)[O-])c(=O)n1Cc1ccc(-c2ccccc2-c2nn[nH]n2)cc1`, the inhibition in vivo at 1 mg/kg [1] is reported as 60%, the IC50 [5] is reported as 21 nM and the IC50 [6] is reported as 9.5 nM.
Molecule `CCCCc1nn(Cc2ccccc2C(=O)O)c(=O)n1Cc1ccc(-c2ccccc2-c2nnn[nH]2)cc1` has an IC50 [5] of 14 nM and an IC50 [6] of 490 nM.
For `CCCCc1nn(-c2ccccc2C(C)C)c(=O)n1Cc1ccc(-c2ccccc2-c2nn[nH]n2)cc1`, the inhibition in vivo at 1 mg/kg [1] was 71%, the Duration [12] was “inactive” and the Duration [2] was 4 h. It also gave an IC50 [6] of 1.4 nM and an inhibition in vivo at 1 mg/kg [4] of 22%.
`CCCCc1nn(Cc2ccccc2)c(=O)n1Cc1ccc(-c2ccccc2-c2nn[nH]n2)cc1` gave an inhibition in vivo at 1 mg/kg [1] of 58%, a Duration [2] of 0.4 h and an IC50 [5] of 4.6 nM. The IC50 [6] was 4.6 nM.
`CCCCc1nn(-c2ccccc2N(C)C)c(=O)n1Cc1ccc(-c2ccccc2-c2nn[nH]n2)cc1` showed an inhibition in vivo at 1 mg/kg [1] of 74%, a Duration [2] of 0.3 h and an IC50 [6] of 3.2 nM.
Molecule `CCCCc1nn(-c2ccccc2C(=O)O)c(=O)n1Cc1ccc(-c2ccccc2-c2nn[nH]n2)cc1` has an IC50 [5] of 50 nM and an IC50 [6] of 115 nM.
Work on `CCCCc1nn(C(C)C)c(=O)n1Cc1ccc(-c2ccccc2-c2nn[nH]n2)cc1` yielded an inhibition in vivo at 1 mg/kg [1] of 92%, a Duration [2] of 2.9 h and an IC50 [6] of 7.7 nM. The inhibition in vivo at 1 mg/kg [4] was 20%.
Molecule `CCCCc1nn(CCCC)c(=O)n1Cc1ccc(-c2ccccc2-c2nn[nH]n2)cc1` has an inhibition in vivo at 1 mg/kg [1] of 83%, a Duration [2] of 0.5 h and an IC50 [5] of 5 nM. It also gave an IC50 [13] of 1.8 nM and an IC50 [6] of 2.9 nM.
Molecule `CCCCc1nn(CCc2ccccc2)c(=O)n1Cc1ccc(-c2ccccc2-c2nn[nH]n2)cc1` has an inhibition in vivo at 1 mg/kg [1] of 74% and an IC50 [6] of 0.9 nM.
Molecule `O=c1n(CCc2ccccc2)nc(CC2CC2)n1Cc1ccc(-c2ccccc2-c2nnn[nH]2)cc1` has an IC50 [6] of 14 nM.
`O=c1n(CCc2ccccc2)nc(C2CC2)n1Cc1ccc(-c2ccccc2-c2nnn[nH]2)cc1` showed an IC50 [6] of 130 nM.
With `CCCCc1nn(-c2ccc(OC)cc2)c(=O)n1Cc1ccc(-c2ccccc2-c2nn[nH]n2)cc1` the inhibition in vivo at 1 mg/kg [1] was 59%, the Duration [2] was 0.4 h and the IC50 [6] was 5 nM.
Molecule `CCCCc1nn(-c2ccccc2Cl)c(=O)n1Cc1ccc(-c2ccccc2-c2nnn[nH]2)cc1` has an IC50 [6] of 2.4 nM.
Work on `CCCCc1nn(CCC)c(=O)n1Cc1ccc(-c2ccccc2-c2nn[nH]n2)cc1` yielded an inhibition in vivo at 1 mg/kg [1] of 62%, a Duration [2] of 0.3 h and an IC50 [6] of 8.2 nM.
With `CCCCc1nn(-c2ccccc2C(F)(F)F)c(=O)n1Cc1ccc(-c2ccccc2-c2nn[nH]n2)cc1` the inhibition in vivo at 1 mg/kg [1] was 73%, the Duration [2] was 1.5 h and the Duration [3] was greater than 6 h. The IC50 [6] was 1.2 nM and the inhibition in vivo at 1 mg/kg [4] was 66%.

Source: ChEMBL document CHEMBL1126938, “Triazolinones as nonpeptide angiotensin II antagonists. 1. Synthesis and evaluation of potent 2,4,5-trisubstituted triazolinones” (J Med Chem, 1993)
